Measurements taken from ChEMBL document CHEMBL1157938, “Cytotoxicity and inhibition of DNA topoisomerase I of polyhydroxylated triterpenoids and triterpenoid glycosides” (Bioorg Med Chem Lett, 2010).
Active and inactive are the calls of the source. The rule behind the calls is not given here.

Experiments:
PANC-1 = test: Cytotoxicity against human PANC1 cells at 25 uM after 48 hrs by WST8 assay; type: functional, cell-based
PC-3 = test: Cytotoxicity against human PC3 cells at 25 uM after 48 hrs by WST8 assay; type: functional, cell-based
HL-60 = test: Cytotoxicity against human HL60 cells at 25 uM after 48 hrs by WST8 assay; type: functional, cell-based
DNA topoisomerase 1 = molecular target: T1, DNA topoisomerase 1 (Homo sapiens, UniProt P11387); test: Inhibition of human DNA topoisomerase 1-mediated relaxation of supercoiled DNA by gel electrophoresis
T1 sequence (P11387 whole entry): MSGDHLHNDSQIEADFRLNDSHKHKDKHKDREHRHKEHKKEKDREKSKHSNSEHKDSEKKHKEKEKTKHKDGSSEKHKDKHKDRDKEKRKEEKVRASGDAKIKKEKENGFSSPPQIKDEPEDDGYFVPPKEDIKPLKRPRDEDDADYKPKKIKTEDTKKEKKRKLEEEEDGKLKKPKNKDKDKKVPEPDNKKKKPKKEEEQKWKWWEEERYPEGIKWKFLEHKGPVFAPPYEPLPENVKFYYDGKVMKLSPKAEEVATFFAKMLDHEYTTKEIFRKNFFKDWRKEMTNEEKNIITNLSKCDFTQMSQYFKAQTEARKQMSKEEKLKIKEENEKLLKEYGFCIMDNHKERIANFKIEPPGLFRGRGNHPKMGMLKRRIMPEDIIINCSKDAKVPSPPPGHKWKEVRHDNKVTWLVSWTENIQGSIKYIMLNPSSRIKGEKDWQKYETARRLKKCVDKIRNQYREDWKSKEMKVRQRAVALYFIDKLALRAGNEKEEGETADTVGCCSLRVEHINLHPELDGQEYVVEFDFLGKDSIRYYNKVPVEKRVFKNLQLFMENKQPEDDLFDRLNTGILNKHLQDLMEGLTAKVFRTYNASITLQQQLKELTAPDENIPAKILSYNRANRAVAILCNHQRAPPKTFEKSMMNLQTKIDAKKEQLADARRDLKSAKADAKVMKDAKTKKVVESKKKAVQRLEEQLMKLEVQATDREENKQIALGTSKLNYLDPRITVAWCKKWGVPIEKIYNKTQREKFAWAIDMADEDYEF

A549 = test: Cytotoxicity against human A549 cells at 25 uM after 48 hrs by WST8 assay; type: functional, cell-based
[1] = molecular target: DNA topoisomerase 2-alpha (Homo sapiens, UniProt P11388); test: Inhibition of human DNA topoisomerase 2-mediated relaxation of supercoiled DNA by gel electrophoresis
Chain of DNA topoisomerase 2-alpha (P11388 whole entry): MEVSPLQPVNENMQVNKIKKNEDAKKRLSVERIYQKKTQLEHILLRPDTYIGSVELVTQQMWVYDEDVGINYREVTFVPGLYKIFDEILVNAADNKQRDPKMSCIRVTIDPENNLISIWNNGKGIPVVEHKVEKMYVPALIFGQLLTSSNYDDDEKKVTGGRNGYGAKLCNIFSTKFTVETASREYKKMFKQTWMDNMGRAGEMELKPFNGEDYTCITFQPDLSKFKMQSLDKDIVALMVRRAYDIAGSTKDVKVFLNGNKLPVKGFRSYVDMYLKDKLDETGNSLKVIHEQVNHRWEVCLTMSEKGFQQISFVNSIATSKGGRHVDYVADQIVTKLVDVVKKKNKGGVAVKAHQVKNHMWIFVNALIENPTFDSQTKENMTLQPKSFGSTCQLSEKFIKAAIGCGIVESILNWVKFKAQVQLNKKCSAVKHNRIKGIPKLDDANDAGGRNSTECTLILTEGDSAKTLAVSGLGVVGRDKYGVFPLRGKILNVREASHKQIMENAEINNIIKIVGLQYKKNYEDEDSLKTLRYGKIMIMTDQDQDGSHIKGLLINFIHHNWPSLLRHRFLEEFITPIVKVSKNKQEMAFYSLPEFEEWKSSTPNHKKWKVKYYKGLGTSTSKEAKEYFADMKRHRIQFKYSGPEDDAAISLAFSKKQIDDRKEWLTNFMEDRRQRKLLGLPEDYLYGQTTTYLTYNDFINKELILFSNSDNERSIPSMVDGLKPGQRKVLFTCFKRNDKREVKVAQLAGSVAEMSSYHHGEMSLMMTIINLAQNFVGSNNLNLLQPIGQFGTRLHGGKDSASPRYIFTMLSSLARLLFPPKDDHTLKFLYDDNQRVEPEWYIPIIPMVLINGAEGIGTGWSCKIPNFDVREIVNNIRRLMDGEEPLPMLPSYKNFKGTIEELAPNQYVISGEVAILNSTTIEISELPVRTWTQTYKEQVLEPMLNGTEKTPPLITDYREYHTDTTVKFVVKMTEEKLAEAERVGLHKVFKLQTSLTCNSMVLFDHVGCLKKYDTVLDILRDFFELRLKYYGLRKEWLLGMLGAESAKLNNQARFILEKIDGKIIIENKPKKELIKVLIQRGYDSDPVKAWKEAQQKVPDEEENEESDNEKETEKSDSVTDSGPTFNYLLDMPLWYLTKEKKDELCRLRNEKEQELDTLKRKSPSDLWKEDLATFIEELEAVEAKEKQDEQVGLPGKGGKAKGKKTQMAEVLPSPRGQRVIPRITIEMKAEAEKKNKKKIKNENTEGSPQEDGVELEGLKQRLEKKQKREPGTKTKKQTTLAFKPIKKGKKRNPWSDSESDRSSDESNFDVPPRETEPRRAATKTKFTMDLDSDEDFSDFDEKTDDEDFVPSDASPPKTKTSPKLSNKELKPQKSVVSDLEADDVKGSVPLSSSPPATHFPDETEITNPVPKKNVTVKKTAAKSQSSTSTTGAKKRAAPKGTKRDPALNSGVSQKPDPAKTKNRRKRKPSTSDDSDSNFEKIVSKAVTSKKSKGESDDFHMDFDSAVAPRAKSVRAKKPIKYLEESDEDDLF

SMILES | growth inhibition (GI) (PANC-1) | growth inhibition (GI) (PC-3) | growth inhibition (GI) (HL-60) | IC50 (DNA topoisomerase 1) | growth inhibition (GI) (A549) | IC50 [1]
C[C@H]1[C@H](C)CC[C@]2(C(=O)O[C@@H]3O[C@H](CO)[C@@H](O)[C@H](O)[C@H]3O)CC[C@]3(C(=O)O)C(=CC[C@@H]4[C@@]5(C)CC[C@H](O)C(C)(C)[C@@H]5CC[C@]43C)[C@H]12 | inactive | inactive | inactive | > 250 µM | inactive | > 250 µM
C[C@H]1[C@H](C)CC[C@]2(C(=O)O[C@@H]3O[C@H](CO)[C@@H](O)[C@H](O)[C@H]3O)CC[C@]3(C(=O)O)C(=CC[C@@H]4[C@@]5(C)CC[C@H](O[C@H]6O[C@@H](C)[C@H](O)[C@@H](O)[C@@H]6O)C(C)(C)[C@@H]5CC[C@]43C)[C@H]12 | inactive | inactive | inactive | > 250 µM | inactive | > 250 µM
C[C@H]1[C@H](C)CC[C@]2(C(=O)O)CC[C@]3(C(=O)O)C(=CC[C@@H]4[C@@]5(C)CC[C@H](O[C@H]6O[C@@H](C)[C@H](O)[C@@H](O)[C@H]6O)C(C)(C)[C@@H]5CC[C@]43C)[C@H]12 | inactive | inactive | inactive | > 250 µM | inactive | > 250 µM
C[C@H]1[C@H](C)CC[C@]2(C(=O)O[C@@H]3O[C@H](CO)[C@@H](O)[C@H](O)[C@H]3O)CC[C@]3(C(=O)O)C(=CC[C@@H]4[C@@]5(C)CC[C@H](O[C@@H]6O[C@H](CO)[C@@H](O[C@H]7O[C@@H](C)[C@H](O)[C@@H](O)[C@H]7O)[C@H](O)[C@H]6O)C(C)(C)[C@@H]5CC[C@]43C)[C@H]12 | inactive | inactive | inactive | > 250 µM | inactive | > 250 µM
C[C@H]1[C@H](C)CC[C@]2(C(=O)O[C@@H]3O[C@H](CO)[C@@H](O)[C@H](O)[C@H]3O)CC[C@]3(C(=O)O)C(=CC[C@@H]4[C@@]5(C)CC[C@H](O[C@@H]6O[C@H](CO)[C@@H](O)[C@H](O)[C@H]6O)C(C)(C)[C@@H]5CC[C@]43C)[C@H]12 | inactive | inactive | inactive | > 250 µM | inactive | > 250 µM
C[C@H]1[C@H](C)CC[C@]2(C(=O)O)CC[C@]3(C(=O)O)C(=CC[C@@H]4[C@@]5(C)CC[C@H](O[C@@H]6O[C@H](CO)[C@@H](O)[C@H](O)[C@H]6O)C(C)(C)[C@@H]5CC[C@]43C)[C@H]12 | inactive | inactive | inactive | > 250 µM | inactive | > 250 µM
CC(C)=CCC[C@](C)(O[C@@H]1O[C@H](CO)[C@@H](O)[C@H](O)[C@H]1O)[C@H]1CC[C@]2(C)[C@@H]1[C@H](O)C[C@@H]1[C@@]3(C)CC[C@H](O[C@@H]4O[C@H](CO)[C@@H](O)[C@H](O)[C@H]4O)C(C)(C)[C@@H]3CC[C@]12C [GINSENOSIDE F2] | inactive | inactive | inactive | > 250 µM | inactive | > 250 µM
CC(C)=CCC[C@](C)(O[C@@H]1O[C@H](CO[C@@H]2OC[C@H](O)[C@H](O)[C@H]2O)[C@@H](O)[C@H](O)[C@H]1O)[C@H]1CC[C@]2(C)[C@@H]1[C@H](O)C[C@@H]1[C@@]3(C)CC[C@H](O)C(C)(C)[C@@H]3[C@@H](O)C[C@]12C [GINSENOSIDE F3] | inactive | inactive | inactive | > 250 µM | inactive | > 250 µM
CC(C)=CCC[C@](C)(O[C@@H]1O[C@H](CO[C@H]2O[C@H](CO)[C@@H](O)[C@@H]2O)[C@@H](O)[C@H](O)[C@H]1O)[C@H]1CC[C@]2(C)[C@@H]1[C@H](O)C[C@@H]1[C@@]3(C)CC[C@H](O)C(C)(C)[C@@H]3[C@@H](O)C[C@]12C [GINSENOSIDE F5] | inactive | inactive | inactive | > 250 µM | inactive | > 250 µM
CC(C)=CCC[C@](C)(O[C@@H]1O[C@H](CO[C@@H]2O[C@H](CO)[C@@H](O)[C@H](O)[C@H]2O)[C@@H](O)[C@H](O)[C@H]1O)[C@H]1CC[C@]2(C)[C@@H]1[C@H](O)C[C@@H]1[C@@]3(C)CC[C@H](O[C@@H]4O[C@H](CO)[C@@H](O)[C@H](O)[C@H]4O[C@@H]4O[C@H](CO)[C@@H](O)[C@H](O)[C@H]4O)C(C)(C)[C@@H]3CC[C@]12C [GINSENOSIDE RB1] | inactive | inactive | inactive | > 250 µM | inactive | > 250 µM
CC(C)=CCC[C@](C)(O[C@@H]1O[C@H](CO[C@@H]2OC[C@@H](O)[C@H](O)[C@H]2O)[C@@H](O)[C@H](O)[C@H]1O)[C@H]1CC[C@]2(C)[C@@H]1[C@H](O)C[C@@H]1[C@@]3(C)CC[C@H](O[C@@H]4O[C@H](CO)[C@@H](O)[C@H](O)[C@H]4O[C@@H]4O[C@H](CO)[C@@H](O)[C@H](O)[C@H]4O)C(C)(C)[C@@H]3CC[C@]12C [GINSENOSIDE RB3] | inactive | inactive | inactive | > 250 µM | inactive | > 250 µM
CC(C)=CCC[C@](C)(O[C@@H]1O[C@H](CO)[C@@H](O)[C@H](O)[C@H]1O)[C@H]1CC[C@]2(C)[C@@H]1[C@H](O)C[C@@H]1[C@@]3(C)CC[C@H](O[C@@H]4O[C@H](CO)[C@@H](O)[C@H](O)[C@H]4O[C@@H]4O[C@H](CO)[C@@H](O)[C@H](O)[C@H]4O)C(C)(C)[C@@H]3CC[C@]12C [GINSENOSIDE RD] | inactive | inactive | inactive | > 250 µM | inactive | > 250 µM
CC(C)=CCC[C@](C)(O[C@@H]1O[C@H](CO)[C@@H](O)[C@H](O)[C@H]1O)[C@H]1CC[C@]2(C)[C@@H]1[C@H](O)C[C@@H]1[C@@]3(C)CC[C@H](O)C(C)(C)[C@@H]3[C@@H](O[C@@H]3O[C@H](CO)[C@@H](O)[C@H](O)[C@H]3O[C@@H]3O[C@@H](C)[C@H](O)[C@@H](O)[C@H]3O)C[C@]12C [GINSENOSIDE RE] | inactive | inactive | inactive | > 250 µM | inactive | > 250 µM
